ChEMBL document CHEMBL5244273, “Tuberculosis: An Overview of the Immunogenic Response, Disease Progression, and Medicinal Chemistry Efforts in the Last Decade toward the Development of Potential Drugs for Extensively Drug-Resistant Tuberculosis Strains” (J Med Chem, 2021)
Converted amounts (≈) assume the structure as drawn.

How the values were obtained:
[1] = tested on: Mycobacterium tuberculosis; assay: Antimycobacterial activity against Mycobacterium tuberculosis H37Rv assessed as inhibition of bacterial growth by resazurin dye based fluorescence analysis; assay type: functional
[2] = tested on: Mycobacterium tuberculosis; assay: Antimycobacterial activity against Mycobacterium tuberculosis H37Rv infected in human THP-1 cells assessed as inhibition of bacterial growth; assay type: functional, organism-based
[3] = tested on: Mycobacterium tuberculosis; assay: Potentiation of ethionamide induced antibacterial activity against Mycobacterium tuberculosis H37Rv expressing GFP incubated for 5 days by fluorescence based analysis; assay type: functional, organism-based; settings: 120 h

SMILES | MIC [1] | also measured
O=S(=O)(NCCO)c1ccc(-c2nnn(Cc3ccc(F)cn3)n2)cc1 | 0.1 µM (≈ 0.0378 µg/mL) | –
COc1ccc(Cn2cc(-c3ccc(S(=O)(=O)NCCO)cc3)nn2)cc1 | 0.1 µM (≈ 0.0388 µg/mL) | –
NC(=O)CNS(=O)(=O)c1ccc(-c2cn(Cc3ccc(F)cc3)nn2)cc1 | 0.1 µM (≈ 0.0389 µg/mL) | –
Cc1cc(Cn2nnc(-c3ccc(S(=O)(=O)NCC(N)=O)cc3)n2)ccn1 | 0.1 µM (≈ 0.0387 µg/mL) | –
COc1cc(-c2nnn(Cc3ccc(C#N)cn3)n2)ccc1S(=O)(=O)NCCO | 0.1 µM (≈ 0.0415 µg/mL) | –
NC(=O)CNS(=O)(=O)c1ccc(-c2cn(CC3CCC(F)(F)CC3)nn2)cc1 | 0.1 µM (≈ 0.0413 µg/mL) | –
O=S(=O)(NCCO)c1ccc(-c2nnn(Cc3ccc(F)cn3)n2)cc1F | 0.1 µM (≈ 0.0396 µg/mL) | –
C[C@@H](O)CNS(=O)(=O)c1ccc(-c2nnn(Cc3ccc(F)cn3)n2)cc1 | 0.1 µM (≈ 0.0392 µg/mL) | –
CC(c1ccc(F)cc1)n1nnc(-c2ccc(S(=O)(=O)NCCO)cc2)n1 (stereo not given) | 0.1 µM (≈ 0.0391 µg/mL) | –
O=S(=O)(NCCO)c1ccc(-c2cn(Cc3ccc(F)cn3)nn2)cc1 | 0.1 µM (≈ 0.0377 µg/mL) | –
N#CCNS(=O)(=O)c1ccc(-c2nnn(Cc3ccncn3)n2)cc1 | 0.1 µM (≈ 0.0356 µg/mL) | –
O=S(=O)(NCCO)c1ccc(-c2nnn(CC3CCCCO3)n2)cc1F (stereo not given) | 0.1 µM (≈ 0.0385 µg/mL) | –
O=S(=O)(NCCO)c1ccc(-c2nnn(CC3CCCCO3)n2)c(F)c1F (stereo not given) | 0.1 µM (≈ 0.0403 µg/mL) | –
NC(=O)CNS(=O)(=O)c1ccc(-c2nnn(Cc3ccc(Cl)cn3)n2)cc1 | 0.1 µM (≈ 0.0408 µg/mL) | –
O=S(=O)(NCC(O)CO)c1ccc(-c2nnn(Cc3ccc(F)cc3)n2)cc1 (stereo not given) | 0.1 µM (≈ 0.0407 µg/mL) | –
NC(=O)CNS(=O)(=O)c1ccc(-c2nnn(CC3CCC(F)(F)CC3)n2)cc1 | 0.1 µM (≈ 0.0414 µg/mL) | –
C[C@@H](O)CNS(=O)(=O)c1ccc(-c2cn(Cc3ccc(F)cc3)nn2)cc1 | 0.1 µM (≈ 0.039 µg/mL) | –
COc1cnc(Cn2nnc(-c3ccc(S(=O)(=O)NCC#N)cc3)n2)cn1 | 0.1 µM (≈ 0.0386 µg/mL) | –
C[C@H](c1ccc(F)cn1)n1nnc(-c2ccc(S(=O)(=O)NCCO)cc2)n1 | 0.1 µM (≈ 0.0392 µg/mL) | –
O=S(=O)(NCCO)c1c(F)cc(-c2nnn(Cc3ccc(F)cn3)n2)cc1F | 0.1 µM (≈ 0.0414 µg/mL) | –
O=S(=O)(NCCO)c1ccc(-c2nnn(CC3CCOCC3)n2)cc1F | 0.1 µM (≈ 0.0385 µg/mL) | –
Cc1ccc(Cn2nnc(-c3ccc(S(=O)(=O)NCCO)cc3)n2)cn1 | 0.1 µM (≈ 0.0374 µg/mL) | –
O=S(=O)(NCCO)c1ccc(-c2nnn(CC3CCOCC3)n2)cc1 | 0.1 µM (≈ 0.0367 µg/mL) | –
COc1cc(-c2nnn(Cc3ccncc3)n2)ccc1S(=O)(=O)NCCO | 0.1 µM (≈ 0.039 µg/mL) | –
N#CCNS(=O)(=O)c1ccc(-c2nnn(Cc3ccncc3)n2)cc1 | 0.1 µM (≈ 0.0355 µg/mL) | –
COc1ccc(Cn2nnc(-c3ccc(S(=O)(=O)NC[C@@H](C)O)cc3)n2)cc1 | 0.1 µM (≈ 0.0403 µg/mL) | –
O=S(=O)(NC(CO)CO)c1ccc(-c2nnn(Cc3ccc(F)cc3)n2)cc1 | 0.1 µM (≈ 0.0407 µg/mL) | –

SMILES | MIC [1] | also measured
CC(c1ccc(F)cc1)n1cc(-c2ccc(S(=O)(=O)NCCO)cc2)nn1 (stereo not given) | 0.1 µM (≈ 0.039 µg/mL) | –
COc1cc(-c2nnn(Cc3ccncc3)n2)ccc1S(=O)(=O)NCC(N)=O | 0.1 µM (≈ 0.0403 µg/mL) | –
COc1ccc(Cn2nnc(-c3ccc(S(=O)(=O)NC[C@@H](C)O)cc3)n2)nc1 | 0.1 µM (≈ 0.0404 µg/mL) | –
Cc1ccc(Cn2nnc(-c3ccc(S(=O)(=O)NCC(N)=O)cc3)n2)nc1 | 0.1 µM (≈ 0.0387 µg/mL) | –
O=S(=O)(NCCO)c1ccc(-c2cn(Cc3ccc(F)cc3)nn2)cc1 | 0.1 µM (≈ 0.0376 µg/mL) | –
O=S(=O)(NCCO)c1ccc(-c2nnn(Cc3cccnc3)n2)cc1 | 0.1 µM (≈ 0.036 µg/mL) | –
COc1ccc(Cn2nnc(-c3ccc(S(=O)(=O)NCC#N)cc3)n2)cn1 | 0.1 µM (≈ 0.0385 µg/mL) | –
O=S(=O)(NCCO)c1ccc(-c2nnn(Cc3ccc(F)cn3)n2)cc1Cl | 0.1 µM (≈ 0.0413 µg/mL) | –
C[C@@H](O)CNS(=O)(=O)c1ccc(-c2nnn(Cc3ccc(F)cc3)n2)cc1 | 0.1 µM (≈ 0.0391 µg/mL) | –
Cc1cc(S(=O)(=O)NCCO)c(F)cc1-c1nnn(Cc2ccc(F)cn2)n1 | 0.1 µM (≈ 0.041 µg/mL) | –
O=C(CCC(F)(F)F)N1CCC2(CC1)CC(OCC(F)(F)F)=NO2 | – | IC50 [2]: 50 nM; EC50 [3]: < 38 nM
O=S(=O)(NCCO)c1ccc(-c2nnn(Cc3ccc(F)cc3)n2)cc1F | 0.1 µM (≈ 0.0395 µg/mL) | –
CCCOC1=NOC2(CCN(C(=O)CCC(F)(F)F)CC2)C1 | – | IC50 [2]: 50 nM; EC50 [3]: < 38 nM
NC(=O)CNS(=O)(=O)c1ccc(-c2nnn(Cc3ccncc3)n2)cc1 | 0.1 µM (≈ 0.0373 µg/mL) | –
O=S(=O)(NCCO)c1ccc(-c2nnn(CC3CCCCC3)n2)cc1 | 0.1 µM (≈ 0.0365 µg/mL) | –
CCc1ccc(Cn2nnc(-c3ccc(S(=O)(=O)NCCO)cc3)n2)cc1 | 0.1 µM (≈ 0.0387 µg/mL) | –
O=S(=O)(NCCO)c1ccc(-c2nnn(Cc3ccc(OC(F)(F)F)cc3)n2)cc1 | 0.1 µM (≈ 0.0443 µg/mL) | –
N#CCNS(=O)(=O)c1ccc(-c2cn(Cc3ccc(F)cn3)nn2)cc1 | 0.1 µM (≈ 0.0372 µg/mL) | –
NC(=O)CNS(=O)(=O)c1ccc(-c2nnn(Cc3ccc(F)cn3)n2)cc1 | 0.1 µM (≈ 0.0391 µg/mL) | –
N#Cc1ccc(Cn2nnc(-c3ccc(S(=O)(=O)NCCO)cc3)n2)nc1 | 0.1 µM (≈ 0.0385 µg/mL) | –
COC(=O)CNS(=O)(=O)c1ccc(-c2nnn(Cc3ccncc3)n2)cc1 | 0.1 µM (≈ 0.0388 µg/mL) | –
Cc1cc(S(=O)(=O)NCCO)ccc1-c1nnn(CC2CCCCO2)n1 (stereo not given) | 0.1 µM (≈ 0.0381 µg/mL) | –
COc1cc(-c2nnn(Cc3ccc(F)cc3)n2)ccc1S(=O)(=O)NCCO | 0.1 µM (≈ 0.0407 µg/mL) | –
O=S(=O)(NCCO)c1ccc(-c2nnn(Cc3ccncc3)n2)cc1 | 0.1 µM (≈ 0.036 µg/mL) | –
O=S(=O)(NCCO)c1c(F)cc(-c2nnn(CC3CCCCO3)n2)cc1F (stereo not given) | 0.1 µM (≈ 0.0403 µg/mL) | –
COc1cc(-c2nnn(Cc3ccc(C#N)cc3)n2)ccc1S(=O)(=O)NCC(N)=O | 0.1 µM (≈ 0.0427 µg/mL) | –
